# Data taken from US12521415B2, “Accelerating repair of mucosal injury using gold(III) compounds” (University of Kentucky Research Foundation, priority 2020, dated 2026).
# “Also recorded” adds a separate entry of the source.
# Legend:
# colonic IEC = test: High-resolution respirometry (OCR), mtDNA and mRNA of colonic IEC from AuPhos-fed mice; assay type: in vivo, mouse
# Text: FIG. 10B includes high resolution respirometry results showing OCR in mitochondrial complexes of IECs from (A). […] FIG. 10D provides results of RT-qPCR analysis of genes associated with mitochondrial respiratory enzymes in AuPhos vs. control DSS mice. Stats—2-way ANOVA with Sidak's multiple comparison test. ★★<0.01, ★★★<0.0001.
# FIGS. 16A-16E illustrate the pharmacokinetics and effects of AuPhos on mitochondrial bioenergetics. FIG. 16A. Biodistribution and pharmacokinetics of AuPhos in different tissues; Colon, Small bowel, Spleen, Liver after a single intragastric (i.g.) gavage (25 mg/kg) with measurements of AuPhos tissue levels (graphite furnace atomic absorption spectroscopy) at times indicated. FIG. 16B. Mitochondrial uptake of AuPhos by measuring gold content in mitochondrial fractions in normal colonocytes (NCM460). FIG. 16C. High-resolution respirometry showing OCR in mitochondrial complexes of freshly isolated IECs from AuPhos (25 mg/kg; q3D×3 doses)-fed mice compared to controls (vehicle only). Stats—2-way ANOVA with Sidak's multiple comparison test. ß<0.05, ßß<0.01. FIG. 16D.
# Isolated IECs will be suspended in a mitochondria respiration medium and integrated respiration evaluated using Oxygraph-2K (Oroboros Instruments). Briefly, the capacity of electron transport system (ETS) will be evaluated by direct titration of protonophore, carbonyl cyanide p-(trifluoromethoxy) phenylhydrazone ([…]) after stabilization of routine respiration. After routine endogenous respiratory phase, cells will be permeabilized with digitonin and complex I (CI) substrates malate and pyruvate (5 mM, respectively).
# OxPHOS will be then be stimulated by subsequent addition of ADP followed by additional CI substrate glutamate (5 mM). […] Residual non-mitochondrial oxygen consumption will be determined by addition of complex III inhibitor antimycin-A (1 ug/ml). Oxygen consumption rate (OCR) of isolated mitochondria will also be evaluated using Oxygraph-2K or high-throughput Seahorse XFe24 Extracellular Flux Analyzer (Agilent Technologies). […]
# serum IL-6 = test: Anti-CD3 mAb-induced serum IL-6 in control and AuPhos-treated mice; assay type: in vivo, mouse; settings: 25 mg/kg i.g. every 3d x2; anti-CD3 mAb injected
# Description: FIG. 12A RT-qPCR analysis of cytokines and chemokine genes in AuPhos vs. controls at 9 and 13 days after DSS initiation. FIG. 12B RT-qPCR analysis of cytokines and chemokine genes in AuPhos vs. controls at 9 and 13 days after DSS initiation. FIG. 12C Quantitative RT-PCR analysis of inflammasome markers in D13 DSS mice. Statistical significance was determined using multiple t-test with Holm-Sidak's multiple method. FIG. 12D Serum IL-6 in AuPhos treated (n=4) and control mice, with or without anti-CD3 antibody. ★<0.05; ★★<0.01.
# Findings in FIG. 9A-9D indicate that AuPhos attenuates tissue inflammation and enhances mucosal healing in DSS colitis mice. To interrogate the effects of AuPhos on Th1 and Treg cytokine production as well as chemokine and inflammasome mediators, mRNA from mice at time points indicated (as in FIG. 9A-9D). […] To test the question of whether AuPhos affected leukocytes directly, control and AuPhos-treated (25 mg/kg i.g. dosed every 3d×2) were injected with anti-CD3 mAb (antiTCR mAb). It is known that CD3 mAb induces a cytokine storm in the periphery and intestine.
# [1] = system: normal human colonic biopsies; test: Western blot of human colonic biopsies incubated with AuPhos; assay type: cell-based
# Description: FIG. 14A Normal human colonic biopsies were incubated a^t 4° C. with AuPhos×3 hrs and membrane fractions examined for mitochondrial complexes expression by WB. FIG. 14B TNF-stimulated colonic NCM460 cells were treated overnight with AuPhos at concentrations indicated. WB for markers indicated are shown in nuclear and membranous protein fractions. FIG. 14C Markers of PI3K pathway were probed in nuclear and cytosolic fractions of AuPhos-treated NCM460 cells (treated with TNF). FIG. 14D NCM460 cell were treated overnight with TNF and probed for the ROS-induced P-PTEN, which inactivates PTEN and activates PI3K.
# Control or DSS colitis mice were gavaged with vehicle (−) or AuPhos (+) (as in FIG. 2) and sacrificed on D14. WB of isolated IEC proteins indicated are shown in nuclear and membranous protein fractions along with densitometry. (#mice=4 for each condition). *p<0.04. FIG. 16E. Normal human colonic biopsies were incubated at 4° C. with AuPhos×3 hrs. Membranous and nuclear fractions examined for indicated proteins by WB.
# The effects of AuPhos in Px-accelerated IL-10KO mice by beginning treatment on D21 (7D after cessation of Px) when colitis is severe is shown in FIG. 13A. AuPhos-induced mitochondrial biogenesis and PI3K signaling. […]
smiles,measurement,setting,value
[Cl][Au]1([c]2ccccc2Cc2ccccn2)[P](c2ccccc2)(c2ccccc2)c2ccccc2[P]1(c1ccccc1)c1ccccc1 [AuPhos],OCR in IEC in vivo,"colonic IEC; 25 mg/kg q3D x3 doses, freshly isolated colonic IEC, OROBOROS 2K",increased OCR in IEC in vivo from states II-V; also recorded: enhances mitochondrial respiration; also recorded: increased OCR (OxPHOS)
same,mtDNA (mtDNA/nucDNA ratio) in IEC,colonic IEC; IEC from AuPhos-treated mice,increased mtDNA; also recorded: higher mtDNA/nucDNA ratio
same,mRNA for mitochondrial CO1 and COX2,"colonic IEC; IEC from AuPhos-treated mice, RT-qPCR",increased
same,anti-CD3 induced increases in serum IL-6,serum IL-6,did not affect
same,mitochondrial complex levels,"[1]; fresh human biopsies, dose range of AuPhos, after 3 h, WB",rapid increased in complexes
same,mitochondrial complex levels and downstream signaling,"[1]; human biopsies, 4° C., AuPhos x3 hrs, WB (FIG. 16E)",increases mitochondrial complex levels and downstream signaling
